# Source: article PMC10893631, “Receptor-based pharmacophore modeling, molecular docking, synthesis and biological evaluation of novel VEGFR-2, FGFR-1, and BRAF multi-kinase inhibitors” (BMC Chemistry, 2024)
# Read-outs that look alike come from different tables or passages of the source.
# Tests used:
# Format in all cases: cell-based, human
# [1] = test system: NCI panel of 60 tumor cell lines; experiment: NCI SRB growth inhibition, whole panel mean (single dose 10 µM / five-dose); conditions: Homo sapiens; for GI50: mean over NCI cancer cell lines, five-dose
# Experimental: Screening of cytotoxic activity against a panel of sixty human tumor cell lines The selected compounds by NCI were evaluated for their anticancer activity in a two- stage process. […] Then, the output from the single dose screen is reported as a mean graph. […] Assay protocol. […] For a typical screening experiment, cells are inoculated into 96 well microtiter plates in 100 µL at plating densities ranging from 5000 to 40,000 cells/well depending on the doubling time of individual cell lines. […] After 24 h, two plates of each cell line are fixed in situ with TCA, to represent a measurement of the cell population for each cell line at the time of drug addition (Tz). The experimental drugs are solubilized in dimethyl sulfoxide at 400-fold the desired final maximum test concentration and stored frozen prior to use. At the time of drug addition, an aliquot of frozen concentrate is thawed and diluted to twice the desired final maximum test concentration with complete medium containing 50 µg/mL gentamicin. Additional four, 10-fold or ½ log serial dilutions are made to provide a total of five drug concentrations plus control. Aliquots of 100 mL of these different drug dilutions are added to the appropriate microtiter wells already containing […] of medium, resulting in the required final drug concentrations. […] For adherent cells, the assay is terminated by the addition of cold TCA. […] The supernatant is discarded, and the plates are washed five times with tap water and air dried. Sulforhodamine B (SRB) solution ([…]) at 0.4% (w/v) in 1% acetic acid is added to each well, and plates are incubated for 10 min at room temperature. After staining, unbound dye is removed by washing five times with 1% acetic acid and the plates are air dried. […] Using the seven absorbance measurements [time zero, (Tz), control growth, (C), and test growth in the presence of drug at the five concentration levels (Ti)], the percentage growth is calculated at each of the drug concentrations levels. Percentage growth inhibition is calculated as: [(Ti Tz)/(C–Tz)] x 100 for concentrations for which Ti>/=Tz and [(Ti-Tz)/Tz] x 100 for concentrations for which Ti < Tz. Three dose response parameters are calculated for each experimental agent. […] The drug concentration resulting in total growth inhibition (TGI) is calculated from Ti = Tz. […] Values are calculated for each of these three parameters if the level of activity is reached; however, if the effect is not reached or is exceeded, the value for that parameter is expressed as greater or less than the maximum or minimum concentration tested.
# 786–0 = experiment: NCI SRB growth inhibition (single dose 10 µM / five-dose); conditions: Homo sapiens; for inhibition at 10 µM: 786–0 (Renal cancer), read-out: GI%; for GI50: 786–0, Renal cancer, five-dose
# Procedure, shortened: (§1)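 Growth inhibition is derived from seven absorbance readings per agent (Tz, C and five Ti). Where a parameter level is not reached or is exceeded, the value is given as greater or less than the highest or lowest concentration tested.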
# UO-31 = experiment: as above; conditions: Homo sapiens; for inhibition at 10 µM: UO-31 (Renal cancer), read-out: GI%; for GI50: UO-31, Renal cancer, five-dose
# Procedure, shortened: as §1
# SW-620 = experiment: as above; conditions: Homo sapiens; for inhibition at 10 µM: SW-620 (Colon cancer), read-out: GI%; for GI50: SW-620, Colon cancer, five-dose
# Procedure, shortened: as §1
# BT-549 = experiment: as above; conditions: Homo sapiens; for inhibition at 10 µM: BT-549 (Breast cancer), read-out: GI%; for GI50: BT-549, Breast cancer, five-dose
# Procedure, shortened: as §1
# MOLT-4 = experiment: as above; conditions: Homo sapiens; for inhibition at 10 µM: MOLT-4 (Leukemia), read-out: GI%; for GI50: MOLT-4, Leukemia, five-dose
# Procedure, shortened: as §1
# A549/ATCC = experiment: as above; conditions: Homo sapiens; for inhibition at 10 µM: A549/ATCC (Non-small cell lung cancer), read-out: GI%; for GI50: A549/ATCC, Non-small cell lung cancer, five-dose
# Procedure, shortened: as §1
# MCF7 = experiment: as above; conditions: Homo sapiens; for inhibition at 10 µM: MCF7 (Breast cancer), read-out: GI%; for GI50: MCF7, Breast cancer, five-dose
# Procedure, shortened: as §1
# UACC-257 = experiment: as above; conditions: Homo sapiens; for inhibition at 10 µM: UACC-257 (Melanoma), read-out: GI%; for GI50: UACC-257, Melanoma, five-dose
# Procedure, shortened: as §1
# HL-60(TB) = experiment: as above; conditions: Homo sapiens; for inhibition at 10 µM: HL-60(TB) (Leukemia), read-out: GI%; for GI50: HL-60(TB), Leukemia, five-dose
# Procedure, shortened: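 TCA fixation ends the assay for adherent lines; unbound SRB is rinsed off five times with 1% acetic acid. Drug is added from a DMSO concentrate at 400× the maximum final concentration, made up to 2× in gentamicin-containing medium, then halved on addition to wells.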
# HCT-116 = experiment: as above; conditions: Homo sapiens, HCT-116; for inhibition at 10 µM: read-out: GI%
# Procedure, shortened: as §1
# TK-10 = experiment: as above; conditions: Homo sapiens; for inhibition at 10 µM: TK-10 (Renal cancer), read-out: GI%; for GI50: TK-10, Renal cancer, five-dose
# Procedure, shortened: as §1
# HS 578 T = experiment: as above; conditions: Homo sapiens; for inhibition at 10 µM: HS 578 T (Breast cancer), read-out: GI%; for GI50: HS 578 T, Breast cancer, five-dose
# Procedure, shortened: as §1
# CAKI-1 = experiment: as above; conditions: Homo sapiens; for inhibition at 10 µM: CAKI-1 (Renal cancer), read-out: GI%; for GI50: CAKI-1, Renal cancer, five-dose
# Procedure, shortened: as §1
# HCC-2998 = experiment: as above; conditions: Homo sapiens; for inhibition at 10 µM: HCC-2998 (Colon cancer), read-out: GI%; for GI50: HCC-2998, Colon cancer, five-dose
# Procedure, shortened: as §1
# UACC-62 = experiment: as above; conditions: Homo sapiens; for inhibition at 10 µM: UACC-62 (Melanoma), read-out: GI%; for GI50: UACC-62, Melanoma, five-dose
# Procedure, shortened: as §1
# OVCAR-5 = experiment: as above; conditions: Homo sapiens; for inhibition at 10 µM: OVCAR-5 (Ovarian cancer), read-out: GI%; for GI50: OVCAR-5, Ovarian cancer, five-dose
# Procedure, shortened: as §1
# MALME-3 M = experiment: as above; conditions: Homo sapiens; for inhibition at 10 µM: MALME-3 M (Melanoma), read-out: GI%; for GI50: MALME-3 M, Melanoma, five-dose
# Procedure, shortened: as §1
# SR = experiment: as above; conditions: Homo sapiens; for inhibition at 10 µM: SR (Leukemia), read-out: GI%; for GI50: SR, Leukemia, five-dose
# Procedure, shortened: as §1
# COLO 205 = experiment: as above; conditions: Homo sapiens; for inhibition at 10 µM: COLO 205 (Colon cancer), read-out: GI%; for GI50: COLO 205, Colon cancer, five-dose
# Procedure, shortened: as §1
# SF-539 = experiment: as above; conditions: Homo sapiens; for inhibition at 10 µM: SF-539 (CNS cancer), read-out: GI%; for GI50: SF-539, CNS cancer, five-dose
# Procedure, shortened: as §1
# MDA-MB-468 = experiment: as above; conditions: Homo sapiens; for inhibition at 10 µM: MDA-MB-468 (Breast cancer), read-out: GI%; for GI50: MDA-MB-468, Breast cancer, five-dose
# Procedure, shortened: as §1
# OVCAR-8 = experiment: as above; conditions: Homo sapiens; for inhibition at 10 µM: OVCAR-8 (Ovarian cancer), read-out: GI%; for GI50: OVCAR-8, Ovarian cancer, five-dose
# Procedure, shortened: as §1
# [2] = mean over NCI 60 cell lines, > 100% = lethal effect, read-out: mean growth inhibition % (GI%)
# [3] = mean over NCI panel of 60 tumor cell lines, read-out: Mean growth inhibition %
smiles,measurement,setting,value
"COc1ccc(-c2nc3cc(C(=O)NN=Cc4cccc(OC)c4O)ccc3[nH]2)cc1 [8k, N'-(2-Hydroxy-3-methoxybenzylidene)-2-(4-methoxyphenyl)-1H-benzo[d]imidazole-5-carbohydrazide]",inhibition at 10 µM,[1]; [2],> 100%
same,GI50,[1],7.7 µM
same,inhibition at 10 µM,[1]; [3],> 100%
same,inhibition at 10 µM,786–0,> 100%
same,GI50,786–0,3.69 µM
same,inhibition at 10 µM,UO-31,83.2%
same,GI50,UO-31,3.34 µM
same,inhibition at 10 µM,SW-620,98.8%
same,GI50,SW-620,4.35 µM
same,inhibition at 10 µM,BT-549,> 100%
same,GI50,BT-549,2.85 µM
same,inhibition at 10 µM,MOLT-4,> 100%
same,GI50,MOLT-4,3.8 µM
same,inhibition at 10 µM,A549/ATCC,76.7%
same,GI50,A549/ATCC,9.04 µM
same,inhibition at 10 µM,MCF7,> 100%
same,GI50,MCF7,1.72 µM
same,inhibition at 10 µM,UACC-257,> 100%
same,GI50,UACC-257,3.43 µM
same,inhibition at 10 µM,HL-60(TB),> 100%
same,GI50,HL-60(TB),7.66 µM
same,GI50,HCT-116,2.9 µM
same,inhibition at 10 µM,HCT-116,> 100%
same,inhibition at 10 µM,TK-10,40%
same,GI50,TK-10,> 100 µM
same,inhibition at 10 µM,HS 578 T,89.3%
same,GI50,HS 578 T,2.22 µM
same,inhibition at 10 µM,CAKI-1,84.6%
same,GI50,CAKI-1,3.64 µM
same,inhibition at 10 µM,HCC-2998,> 100%
same,GI50,HCC-2998,2.33 µM
same,inhibition at 10 µM,UACC-62,98%
same,GI50,UACC-62,2.78 µM
same,inhibition at 10 µM,OVCAR-5,69.5%
same,GI50,OVCAR-5,7.72 µM
same,inhibition at 10 µM,MALME-3 M,> 100%
same,GI50,MALME-3 M,1.09 µM
same,inhibition at 10 µM,SR,> 100%
same,GI50,SR,2.06 µM
same,inhibition at 10 µM,COLO 205,> 100%
same,GI50,COLO 205,3.94 µM
same,inhibition at 10 µM,SF-539,> 100%
same,GI50,SF-539,2.8 µM
same,inhibition at 10 µM,MDA-MB-468,> 100%
same,GI50,MDA-MB-468,1.95 µM
same,inhibition at 10 µM,OVCAR-8,> 100%
same,GI50,OVCAR-8,2.71 µM
"COc1ccc(-c2nc3cc(C(=O)NN=Cc4cccc(OC)c4)ccc3[nH]2)cc1 [8j, N'-(3-Methoxybenzylidene)-2-(4-methoxyphenyl)-1H-benzo[d]imidazole-5-carbohydrazide]",inhibition at 10 µM,[1]; [2],100%
same,GI50,[1],5.24 µM
same,inhibition at 10 µM,[1]; [3],> 100%
same,inhibition at 10 µM,786–0,> 100%
same,GI50,786–0,3.84 µM
same,inhibition at 10 µM,UO-31,98.9%
same,GI50,UO-31,1.78 µM
same,inhibition at 10 µM,SW-620,> 100%
same,GI50,SW-620,3.1 µM
same,inhibition at 10 µM,BT-549,29.8%
same,GI50,BT-549,5.47 µM
same,inhibition at 10 µM,MOLT-4,59.4%
same,GI50,MOLT-4,22.6 µM
same,inhibition at 10 µM,A549/ATCC,> 100%
same,GI50,A549/ATCC,3.05 µM
same,inhibition at 10 µM,MCF7,> 100%
same,GI50,MCF7,2.5 µM
same,inhibition at 10 µM,UACC-257,57.7%
same,GI50,UACC-257,11 µM
same,inhibition at 10 µM,HL-60(TB),30.4%
same,GI50,HL-60(TB),36.5 µM
same,GI50,HCT-116,2.99 µM
same,inhibition at 10 µM,HCT-116,> 100%
same,inhibition at 10 µM,TK-10,> 100%
same,GI50,TK-10,12.6 µM
same,inhibition at 10 µM,HS 578 T,> 100%
same,GI50,HS 578 T,1.9 µM
same,inhibition at 10 µM,CAKI-1,85.3%
same,GI50,CAKI-1,2.81 µM
same,inhibition at 10 µM,HCC-2998,88.5%
same,GI50,HCC-2998,3.52 µM
same,inhibition at 10 µM,UACC-62,58.9%
same,GI50,UACC-62,6.5 µM
same,inhibition at 10 µM,OVCAR-5,91.2%
same,GI50,OVCAR-5,4.69 µM
same,inhibition at 10 µM,MALME-3 M,> 100%
same,GI50,MALME-3 M,2.45 µM
same,inhibition at 10 µM,SR,92.7%
same,GI50,SR,10.6 µM
same,inhibition at 10 µM,COLO 205,> 100%
same,GI50,COLO 205,4.3 µM
same,inhibition at 10 µM,SF-539,34.1%
same,GI50,SF-539,11.5 µM
same,inhibition at 10 µM,MDA-MB-468,> 100%
same,GI50,MDA-MB-468,3.06 µM
same,inhibition at 10 µM,OVCAR-8,> 100%
same,GI50,OVCAR-8,1.92 µM
